Experimental data from patent publication US20040057926A1, “Modulation of the immune response through the manipulation of arginine levels” (LSU Medical Center, priority 2002, published 2004).

Experiments:
[1] = tested on: purified T-cells; assay: CD3ζ and phospho-CD3ζ expression in stimulated purified T-cells (flow cytometry); type: cell-based, human
Experimental: Peripheral blood mononuclear cells (PBMC) from normal donors were separated over Ficoll-Paque (Pharmacia Biotech, Uppsala, Sweden). PBMC were enriched over T-cell enrichment columns (R&D Systems, Minneapolis, Minn.). After 10 min. of incubation, the columns were washed and the obtained enriched T-cells were counted and tested for surface markers by flow cytometry. […].
Tissue culture dishes (100 mm) (Corning, N.Y.) were coated overnight at 4° C. with PBS containing 10 μg/ml of anti-CD3 (OKT-3 Ortho Pharmaceutical, Raritan, N.J.) and washed once with cold phosphate buffer saline (PBS). Two million purified T-cells were resuspended in complete RPMI-1640 (RPMI) containing approximately 1140 μM of L-arginine (BioWhittaker, Walkersville, Md.) or in RPMI-1640 without L-arginine (Arg-free-RPMI) (GIBCO, Invitrogen, Grand Island, N.Y.) containing 100 ng/ml of anti-CD28 (Becton Dickinson, San Jose, Calif.) and added to plates. Control media included RPMI without L-glutamine or […]. Unstimulated T-cells were placed in the same culture conditions as controls. […]
To determine CD3ζ expression, purified T-cells were incubated for 15 min at 4° C. with anti-CD3-FITC or the isotype control (Beckman-Coulter, Miami, Fla.) at 1 μg of antibody/10^6 cells. […] Fluorescence analysis was done using a Coulter-EPICS flow cytometer (Beckman-Coulter, Miami, Fla.).

[2] = tested on: purified T-cells; assay: CD3ζ expression in stimulated purified T-cell cultures with H. pylori sonicate; type: cell-based, human; conditions: sonicate 20 μg/ml, L-arginine 400 μM
Experimental: After isolating peripheral blood mononuclear cells by Ficoll-Paque Plus (Amersham Pharmacia Biotech; Piscataway, N.J.), T-cells were purified by negative selection by using an affinity column (R & D Systems; Minneapolis, Minn.). The purity was always >90% T-cells as measured by the expression of CD3ε. H. pylori extracts or live H. pylori have no effect on resting T-cells, therefore T-cells were stimulated by cross linking anti-CD3 plus anti-CD28 as follows: 24 well plates were coated with 0.3 ml of goat-anti mouse (GAM) (Kirkegaard & Perry Laboratories; Gaithersburg, Md.) at 10 μg/ml in HBSS for 1 h. After washing twice with Hank's balanced salt solution (HBSS), 0.5×10^6 of purified T-cells were added per well in 1 ml of RPMI without L-arginine containing 1 μg/ml of anti-human CD3 (Ortho Diagnostics, Raritan, N.J.) and 100 ng/ml of anti-human CD28 (Becton-Dickinson) and cultured for 24 h. After this time L-arginine was added to the wells to give a final concentration of 0.4 mM. H. pylori sonicate (20 μg/ml) from either the wild type strain ATCC 43504 or its rocF (−) isogenic mutant was also added to the wells. After 24 h under these conditions, the cells were recovered and stained for CD3ζ. Six different donors were tested. […]

[3] = molecular target: CAT-1 (Homo sapiens, UniProt P30825); conditions: read-out: Km for L-Arg; cited from earlier work
[4] = molecular target: CAT-3 (Homo sapiens, UniProt Q8WY07); conditions: read-out: Km for L-Arg; cited from earlier work
[5] = tested on: ASE; assay: ASE activity assay (L-ornithine production) in PM lysates; type: biochemical, mice; conditions: NOHA 100 μM, Nor-NOHA 50 μM
Experimental: Cell lysates from PM stimulated with IL-4+IL-13 or IFN-γ were tested for ASE activity by measuring the production of L-ornithine. In brief, cell lysates from PM stimulated with IL-4+IL-13 or IFN-γ in the presence or absence of NOHA or Nor-NOHA were added to 50 μl of Tris-HCl (50 mM; pH 7.5) containing 10 mM MnCl2. This mixture was heated at 55-60° C. for 10 min to activate ASE. The hydrolysis reaction from L-Arg to L-ornithine was identified by a colorimetric assay after the addition of ninhydrin solution and incubation at 37° C. for 1 h.

[6] = tested on: Jurkat cells; assay: CD3ζ chain expression in Jurkat cells with H. pylori sonicate or proteins; type: cell-based; conditions: NOHA 10 μg/ml; difference not statistically significant
Experimental: Jurkat cells were cultured for 24 h in medium with the H. pylori sonicate at concentrations ranging from 1 μg/ml to 50 μg/ml. CagA (2 μg/ml) (Austral Biologicals; San Ramon, Calif.), VacA (4 μg/ml) (Austral), H. pylori urease A (2 μg/ml) (Austral), H. pylori urease B (2 μg/ml) (Austral) and E. coli LPS (500 ng/ml) (Sigma-Aldrich; St Louis, Mo.) were also used. Jurkat and T-cells were counted and stained with FITC-conjugated anti-human CD3 (Beckman-Coulter; Miami, Fla.) for 20 min in the dark. After washing with PBS the cells were stained for 8 min with phycoerythrin (PE)-conjugated anti-human CD3ζ (Beckman-Coulter; Miami, Fla.) in PBS containing 50 μg/ml of digitonin. The cells were washed twice in PBS and analyzed in an EPICS XL Coulter Flow Cytometer. The results compare the percentage of cells expressing CD3ζ as well as the mean fluorescence intensity.
[…] After addition of the sonicate plus NOHA or sonicate plus L-arginine mixture to the Jurkat cells, 1.0 μCi of ^3H-thymidine (NEN) was added per well, the cells were incubated at 37° C. for 18 h, harvested onto filters and counted in a β-counter (Packard).

Chain of CAT-3 (Q8WY07 whole entry, species assumed): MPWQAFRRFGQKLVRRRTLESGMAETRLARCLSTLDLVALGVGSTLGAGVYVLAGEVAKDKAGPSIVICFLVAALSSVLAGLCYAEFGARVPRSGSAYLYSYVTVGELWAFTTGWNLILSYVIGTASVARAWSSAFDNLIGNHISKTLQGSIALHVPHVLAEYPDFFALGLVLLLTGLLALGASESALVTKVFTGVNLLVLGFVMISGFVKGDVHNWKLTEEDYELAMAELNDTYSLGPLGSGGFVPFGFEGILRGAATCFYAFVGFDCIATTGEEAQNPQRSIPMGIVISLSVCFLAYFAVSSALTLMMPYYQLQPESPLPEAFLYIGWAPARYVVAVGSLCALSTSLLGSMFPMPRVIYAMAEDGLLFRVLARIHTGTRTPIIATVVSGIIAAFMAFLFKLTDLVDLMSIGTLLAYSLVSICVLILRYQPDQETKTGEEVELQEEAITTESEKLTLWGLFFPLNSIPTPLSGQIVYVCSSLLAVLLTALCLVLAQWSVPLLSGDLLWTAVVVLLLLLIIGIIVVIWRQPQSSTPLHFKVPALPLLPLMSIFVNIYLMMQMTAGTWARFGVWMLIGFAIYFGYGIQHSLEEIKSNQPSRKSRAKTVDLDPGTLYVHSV
Chain of CAT-1 (P30825 whole entry): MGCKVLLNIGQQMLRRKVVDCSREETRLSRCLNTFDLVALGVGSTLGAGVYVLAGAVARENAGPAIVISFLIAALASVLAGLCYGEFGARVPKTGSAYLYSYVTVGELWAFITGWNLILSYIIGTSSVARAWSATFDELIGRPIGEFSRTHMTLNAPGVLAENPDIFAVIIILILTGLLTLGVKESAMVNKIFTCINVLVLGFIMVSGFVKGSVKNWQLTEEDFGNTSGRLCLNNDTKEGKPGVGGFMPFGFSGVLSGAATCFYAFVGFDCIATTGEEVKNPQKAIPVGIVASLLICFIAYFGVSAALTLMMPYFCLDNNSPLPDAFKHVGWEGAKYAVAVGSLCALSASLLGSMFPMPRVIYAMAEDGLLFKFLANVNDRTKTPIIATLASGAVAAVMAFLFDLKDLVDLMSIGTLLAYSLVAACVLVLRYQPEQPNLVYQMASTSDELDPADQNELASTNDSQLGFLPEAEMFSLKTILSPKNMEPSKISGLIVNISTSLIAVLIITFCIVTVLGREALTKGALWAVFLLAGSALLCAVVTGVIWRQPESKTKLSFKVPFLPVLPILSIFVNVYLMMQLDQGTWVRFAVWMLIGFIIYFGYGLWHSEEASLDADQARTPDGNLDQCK

| Compound | re-expression of CD3ζ after addition of L-arginine to the culture media ([1]; L-arginine 1140 μM, T-cells stimulated in Arg-free-RPMI) | L-Arg concentrations that impair the re-expression of CD3ζ chain ([1]; stimulated T-cells, in vitro) | CD3ζ expression in stimulated T-cells [2] | Km [3] [µM] | Km [4] [µM] | intracellular ASE activity [5] | CD3ζ chain expression in Jurkat cells treated with H. pylori sonicate [6] |
| --- | --- | --- | --- | --- | --- | --- | --- |
| N=C(N)NCCC[C@H](N)C(=O)O [L-arginine] | rapid re-expression of CD3ζ | below 40 μM | recovered CD3ζ expression | 100 | 100 |  |  |
| NC(=NCCC[C@H](N)C(=O)O)NO [NOHA, NG-hydroxy-L-arginine] |  |  |  |  |  | blocked intracellular ASE activity | partially inhibited the drop in CD3ζ chain expression |
